≈ marks a conversion by molar mass, not a printed value.
Assays:
[1] = system: Aspergillus fumigatus; assay: Antifungal activity measured against Aspergillus fumigatus; format: functional
[2] = system: Candida parapsilosis; assay: Antifungal activity against Candida parapsilosis.; format: functional; conditions: Lodderomyces parapsilosis
[3] = system: Epidermophyton floccosum; assay: Antifungal activity against Epidermophyton floccosum.; format: functional
[4] = system: Microsporum canis; assay: Antifungal activity against Microsporum canis; format: functional
[5] = system: Sporothrix schenckii; assay: Antifungal activity measured against Sporothrix schenck ii.; format: functional
[6] = Antifungal activity against Trichophyton mentagrophytes.; format: functional, Arthroderma benhamiae; conditions: Trichophyton benhamiae
[7] = system: Cavia porcellus; assay: In vivo antifungal activity by topical treatment of guinea pig dermatophytosis caused by Trichophyton mentagrophytes at a dose of 0.1%; format: functional
[8] = system: Cavia porcellus; assay: In vivo antifungal activity by topical treatment of guinea pig dermatophytosis caused by Trichophyton mentagrophytes at a dose of 0.5%; format: functional
[9] = system: Cavia porcellus; assay: In vivo antifungal activity by topical treatment of guinea pig dermatophytosis caused by Trichophyton mentagrophytes at a dose of 2%; format: functional
[10] = system: Trichophyton quinckeanum; assay: Antifungal activity was measured against Trichophyton mentagrophytes.; format: functional, ptrichophyton mentagrophytes
[11] = system: Trichophyton benhamiae; assay: ~ Antifungal activity was measured against Trichophyton mentagrophytes.; format: functional, Arthroderma benhamiae
[12] = system: Cavia porcellus; assay: In vivo antifungal activity (% cure) was determined by topical treatment of guinea pig dermatophytosis caused by Trichophyton mentagrophytes at a dose of […]; format: functional
[13] = system: Trichophyton benhamiae; assay: Antifungal activity measured against Trichophyton mentagrophytes; format: functional, Arthroderma benhamiae
[14] = system: Sporothrix schenckii; assay: Antifungal activity was measured against Sporothrix schenck ii.; format: functional
[15] = system: Candida parapsilosis; assay: Antifungal activity was measured against Candida parapsilosis.; conditions: Lodderomyces parapsilosis
[16] = system: Cavia porcellus; assay: In vivo antifungal activity (% cure) was determined by topical treatment of guinea pig dermatophytosis caused by Trichophyton mentagrophytes at a dose of 0.5%; format: functional
[17] = system: Cavia porcellus; assay: In vivo antifungal activity (% cure) was determined by topical treatment of guinea pig dermatophytosis caused by Trichophyton mentagrophytes at a dose of 2%; format: functional
[18] = system: Aspergillus fumigatus; assay: Antifungal activity was measured against Aspergillus fumigatus; format: functional

| SMILES | MIC [1] [µg/mL] | MIC [2] [µg/mL] | MIC [3] [µg/mL] | MIC [4] [µg/mL] | MIC [5] [µg/mL] | MIC [6] [µg/mL] | Activity [7] [%] | Activity [8] [%] | Activity [9] [%] | MIC [10] [µg/mL] | MIC [11] [µg/mL] | Activity [12] [%] | MIC [13] [µg/mL] | MIC [14] [µg/mL] | MIC [15] [µg/mL] | Activity [16] [%] | Activity [17] [%] | MIC [18] [µg/mL] |
| --- | --- | --- | --- | --- | --- | --- | --- | --- | --- | --- | --- | --- | --- | --- | --- | --- | --- | --- |
| CN(CC/C=C/c1ccccc1)Cc1cccc2ccccc12 | 100 (≈ 332 µM) | > 100 | 6.2 (≈ 20.6 µM) | 3.1 (≈ 10.3 µM) | 100 (≈ 332 µM) | 3.1 (≈ 10.3 µM) |  |  |  |  |  |  |  |  |  |  |  |  |
| CN(C/C=C/c1ccccc1F)Cc1cccc2ccccc12 | 100 (≈ 327 µM) | 12.5 (≈ 40.9 µM) | ≤ 1.6 | ≤ 1.6 | 6.25 (≈ 20.5 µM) |  | 0 | 59 | 94 | ≤ 1.6 |  |  |  |  |  |  |  |  |
| CN(C/C=C/c1ccccc1)C1CCCc2ccccc21 (configuration not stated) | > 100 | > 100 | 50 (≈ 180 µM) | 50 (≈ 180 µM) | 100 (≈ 360 µM) | 12.5 (≈ 45.1 µM) |  |  |  |  |  |  |  |  |  |  |  |  |
| CN(C/C=C/c1ccccc1)CCc1cccc2ccccc12 | 100 (≈ 332 µM) | 50 (≈ 166 µM) | 25 (≈ 82.9 µM) | 50 (≈ 166 µM) | 25 (≈ 82.9 µM) | 12.5 (≈ 41.5 µM) |  |  |  |  |  |  |  |  |  |  |  |  |
| CN(C/C=C/c1ccccc1Cl)Cc1cccc2ccccc12 | > 100 | > 100 | 3.1 (≈ 9.63 µM) | < 1.6 | 25 (≈ 77.7 µM) |  |  |  |  |  | < 1.6 |  |  |  |  |  |  |  |
| CN(C/C=C/c1cccc2ccccc12)Cc1ccccc1 | > 100 | > 100 | 100 (≈ 348 µM) | 100 (≈ 348 µM) | 100 (≈ 348 µM) | 100 (≈ 348 µM) |  |  |  |  |  |  |  |  |  |  |  |  |
| CN(C/C=C/c1ccccc1)c1cccc2ccccc12 | > 100 | > 100 | > 100 | > 100 | > 100 | 6.2 (≈ 22.7 µM) |  |  |  |  |  |  |  |  |  |  |  |  |
| CCCC/C=C/C/C=C/CN(C)Cc1cccc2ccccc12 | 25 (≈ 81.3 µM) | 1.6 (≈ 5.2 µM) | 0.2 (≈ 0.65 µM) | 0.1 (≈ 0.325 µM) | 3.1 (≈ 10.1 µM) |  |  | 69 | 100 |  |  | 40 | 0.05 (≈ 0.163 µM) |  |  |  |  |  |
| CCOC(=O)/C=C/C=C/CN(C)Cc1cccc2ccccc12 | > 100 | > 100 | 3.1 (≈ 10 µM) | 3.1 (≈ 10 µM) |  |  |  |  |  |  |  |  | < 1.6 | 100 (≈ 323 µM) |  |  |  |  |
| CN(C/C=C/c1ccccc1)Cc1ccc(Cl)c2ccccc12 | > 100 | 1.6 (≈ 4.97 µM) | 0.1 (≈ 0.311 µM) | 0.1 (≈ 0.311 µM) | 3.1 (≈ 9.63 µM) | 0.05 (≈ 0.155 µM) | 18 | 44 | 88 |  |  |  |  |  |  |  |  |  |
| CN(C/C=C/c1ccccc1)Cc1ccc2ccccc2c1 | > 100 | > 100 | 25 (≈ 87 µM) | 50 (≈ 174 µM) | 100 (≈ 348 µM) | 25 (≈ 87 µM) |  |  |  |  |  |  |  |  |  |  |  |  |
| CN(C/C=C/c1ccccc1)Cc1cccc2ccccc12 [NAFTIFINE] | 12.5 (≈ 43.5 µM) |  | 0.1 (≈ 0.348 µM) | 0.1 (≈ 0.348 µM) | 1.6 (≈ 5.57 µM) | 0.05 (≈ 0.174 µM) | 35 | 88 | 100 |  |  |  |  |  | 1.6 (≈ 5.57 µM) |  |  |  |
| C(=C\c1ccccc1)/COCc1cccc2ccccc12 | > 100 | > 100 | > 100 | > 100 | > 100 | 3.1 (≈ 11.3 µM) |  |  |  |  |  |  |  |  |  |  |  |  |
| CN(C/C=C/Cc1ccccc1)Cc1cccc2ccccc12 | > 100 | > 100 | 50 (≈ 166 µM) | 50 (≈ 166 µM) | > 100 | 50 (≈ 166 µM) |  |  |  |  |  |  |  |  |  |  |  |  |
| CN(CCCc1ccccc1)Cc1cccc2ccccc12 | > 100 | > 100 | > 100 | > 100 | > 100 | 12.5 (≈ 43.2 µM) |  |  |  |  |  |  |  |  |  |  |  |  |
| CN(C/C=C/C(=O)O)Cc1cccc2ccccc12 | < 100 | < 100 | < 100 | < 100 | < 100 | < 100 |  |  |  |  |  |  |  |  |  |  |  |  |
| COc1ccc(CN(C)C/C=C/c2ccccc2)c2ccccc12 | > 100 | 50 (≈ 158 µM) | ≤ 1.6 | ≤ 1.6 | 50 (≈ 158 µM) | ≤ 1.6 |  | 41 | 65 |  |  |  |  |  |  |  |  |  |
| CN(C/C=C/c1ccccc1)Cc1c(O)ccc2ccccc12 | > 100 | > 100 | 50 (≈ 165 µM) | 50 (≈ 165 µM) | 100 (≈ 330 µM) | 25 (≈ 82.4 µM) |  |  |  |  |  |  |  |  |  |  |  |  |
| Cc1ccc(CN(C)C/C=C/c2ccccc2)c2ccccc12 | > 100 | 12.5 (≈ 41.5 µM) | 0.2 (≈ 0.663 µM) | 0.4 (≈ 1.33 µM) | 3.1 (≈ 10.3 µM) | 0.1 (≈ 0.332 µM) |  |  |  |  |  |  |  |  |  |  |  |  |
| CN(C/C=C/c1ccccc1)Cc1ccccc1 | > 100 | > 100 | > 100 | > 100 | > 100 | > 100 |  |  |  |  |  |  |  |  |  |  |  |  |
| CN(C/C=C/c1ccccc1)Cc1ccc2c(c1)C1CCC2C1 (configuration not stated) | > 100 | > 100 | 12.5 (≈ 41.2 µM) | 50 (≈ 165 µM) | 100 (≈ 330 µM) | 6.2 (≈ 20.4 µM) |  |  |  |  |  |  |  |  |  |  |  |  |
| CN(C/C=C/C(=O)OCc1ccccc1)Cc1cccc2ccccc12 | > 100 | > 100 | < 1.6 | < 1.6 | 12.5 (≈ 36.2 µM) |  | 0 |  |  |  |  |  | < 1.6 |  |  | 0 | 8 |  |
| CN(C/C=C/c1ccccc1)CC1CCCc2ccccc21 (configuration not stated) | > 100 | > 100 | 50 (≈ 172 µM) | 50 (≈ 172 µM) | 100 (≈ 343 µM) | 6.2 (≈ 21.3 µM) |  |  |  |  |  |  |  |  |  |  |  |  |
| CN(C/C=C/c1ccccc1)CC1=CCc2ccccc21 | > 100 | > 100 | 12.5 (≈ 45.4 µM) | 3.1 (≈ 11.3 µM) | > 100 | 1.6 (≈ 5.81 µM) |  |  |  |  |  |  |  |  |  |  |  |  |
| CN(C/C=C/CCc1ccccc1)Cc1cccc2ccccc12 | > 100 | > 100 | 12.5 (≈ 39.6 µM) | 12.5 (≈ 39.6 µM) | > 100 | 1.6 (≈ 5.07 µM) |  |  |  |  |  |  |  |  |  |  |  |  |
| ON(C/C=C/c1ccccc1)Cc1cccc2ccccc12 |  | > 100 |  | 50 (≈ 173 µM) | > 100 |  |  |  |  |  |  |  | 12.5 (≈ 43.2 µM) |  |  |  |  | > 100 |

Source: ChEMBL document CHEMBL1123199, “Synthesis and structure-activity relationships of naftifine-related allylamine antimycotics” (1986)
